Columns and labels:
EGFR = biological target: T1, EGFR (Homo sapiens, UniProt P00533); experiment: EGFR Kinase Assay; format: biochemical; settings: for inhibition at 2 µM: test concentration of 2 μM, read-out: EGFR percent inhibition
T1 construct: The intracellular portion of EGFR started at nucleotide 2189 (corresponding to amino acid 667) and ended at the termination codon; made in house; host or cells: Sf9 insect cells (baculovirus)
From the text: The EGFR kinase used was a fusion of Glutathione-S-Transferase (GST) and a PCR amplified intracellular portion of EGFR (NM_005228). The intracellular portion of EGFR started at nucleotide 2189 (corresponding to amino acid 667) and ended at the termination codon. The portion was PCR amplified with primers that added the lambda attB sequences to each end, recombined into an entry vector, then into a GST destination vector (as described in Gateway Technologies Manual by Invitrogen Corporation, Carlsbad, Calif.).
The destination vector was recombined in the DH10BAC strain of bacteria to produce a bacmid. The bacmid was transfected into Sf 9 cells and the supernatant containing the baculovirus was collected. The GSTEGFR protein was purified using large cultures of Sf 9 cells infected with stock virus. After an appropriate period of time, the cells were collected and lysed. The GSTEGFR was then purified from the lysate on Glutathione-Sepharose columns (as described by Amersham Biosciences, Buckinghamshire, United Kingdom).
The EGFR substrate was prepared by biotinylating polyGluTyr (128 mg) (Sigma, St. Louis, Mo.) in a 1×PBS buffer incubated together with a 12-fold molar excess of Sulfo-NHS-LC-Biotin on ice for at least 2 hrs. The free biotin was separated from the biotinylated polyGluTyr on a gel filtration column.
A mixture of a 10× kinase buffer (500 mM Tris at pH 8.0, 100 mM Magnesium Chloride and 1 mM Sodium Vanadate), DTT (1 mM final from 500 mM stock), ATP (5 μM final from 10 mM stock), biotinylated polyGluTyr (10 μg/μL stock), γ-^33P ATP (10 μCi/μL stock) and water was added to each well (90 μL/well) of a Streptavidin Flashplate (Perkin Elmer, Wellesley, Mass.).
Test compound in 100% DMSO (2 μL) was added to the appropriate wells. Diluted GSTEGFR (1:300 dilution in 50 mM Tris at pH 8.0 and 0.1% bovine serum albumin) (10 μL) was added to the wells to initiate the reactions.
The plates were incubated at 30° C. for 1 hr with shaking. The reacted contents were removed and the plates were sequentially washed three times with a 1×PBS stop buffer (300 μL without Magnesium and Calcium) and 100 mM EDTA. After the final wash, the same stop buffer (200 μL) was added to the wells. The plates were then sealed and read on the TopCount scintillation counter.
Test compounds were assayed in triplicate at 16 concentrations at half-log dilutions starting at 200 uM. A maximum and minimum signal for the assay was determined on each plate. The percent inhibition of a test compound was calculated according to the formula
For a series of test concentrations, the IC50 was derived by graphing percent inhibition against the log of the concentrations tested for a given compound. For those compounds without an IC50, the percent inhibition results are shown at a test concentration of 2 μM.

VEGF-R2 = biological target: T2, VEGF-R2 (Rattus norvegicus, UniProt O08775); experiment: VEGF-R2 Screening Assay; format: biochemical; settings: for inhibition at 1 µM: test concentration of 1 μM, read-out: VEGF-R2 percent inhibition
T2 construct: polyhistidine (N)
T2 sequence (O08775 786-1343): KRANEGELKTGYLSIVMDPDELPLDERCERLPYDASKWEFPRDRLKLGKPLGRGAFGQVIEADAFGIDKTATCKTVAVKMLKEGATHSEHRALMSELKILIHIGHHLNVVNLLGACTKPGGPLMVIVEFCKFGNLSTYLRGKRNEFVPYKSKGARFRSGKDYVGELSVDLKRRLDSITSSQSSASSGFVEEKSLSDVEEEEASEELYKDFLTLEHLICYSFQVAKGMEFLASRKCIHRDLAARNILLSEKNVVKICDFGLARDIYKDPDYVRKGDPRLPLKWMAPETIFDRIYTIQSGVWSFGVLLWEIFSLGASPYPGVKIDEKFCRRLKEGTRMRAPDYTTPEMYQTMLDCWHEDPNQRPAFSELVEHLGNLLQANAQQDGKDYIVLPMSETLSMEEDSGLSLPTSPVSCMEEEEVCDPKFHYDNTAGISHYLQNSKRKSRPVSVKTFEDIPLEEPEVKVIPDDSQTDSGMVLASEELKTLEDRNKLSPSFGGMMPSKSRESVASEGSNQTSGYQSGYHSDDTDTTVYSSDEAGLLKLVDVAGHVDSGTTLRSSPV
Description: (§1) A kinase reaction mixture was prepared containing 50 mM Tris-HCl at pH 8, 10 mM, MgCl20.1 mM […], 1 mM DTT, 10 μM ATP, 0.025 μM biotinylated histone-H1 peptide substrate and 0.2 μCuries per well ^33P-γ-ATP (2000-3000 Ci/mmol). 70 μL of the kinase reaction mixture was dispensed into the well of a Streptavidin FlashPlate.
(§2) Test compound stock in 100% DMSO (1 μL) was added to the wells resulting in a final concentration of 1% DMSO in the reaction with a 100 μL final reaction volume. Each enzyme was diluted in 50 mM Tris-HCl pH=8.0, 0.1% BSA and 30 μL was added to each well to initiate the reaction. The reaction was incubated for one hour at 30° C. At the end of the 1 hr incubation, the reaction was terminated by aspirating the mixture from the plate and washing the wells twice with PBS containing 100 mM EDTA. The biotinylated peptide substrate became immobilized on the Flashplate^198 and the incorporation of ^33P-γ-ATP was measured by reading the plate on a scintillation counter. Inhibition of the enzymatic activity was measured by observing a reduced amount of ^33P-γ-ATP incorporated into the immobilized peptide.
The VEGF-R2 enzyme is a fusion protein containing a polyhistidine tag at the N terminus followed by amino acids 786 to 1343 of the rat VEGF-R2 kinase domain (Accession number U93306). The assay used 150 ng of the N-terminal biotinylated peptide biotin-KHKKLAEGSAYEEV-amide (VEGF-R2) per well.
(§3) The IC50 was derived according to the procedure described in Example 2. For those compounds without an IC50, the percent inhibition results are shown at a test concentration of 1 μM.

Aurora-A = biological target: T3, Aurora-A (Mus musculus, UniProt P97477); experiment: Aurora-A Screening Assay; format: biochemical, murine; settings: for inhibition at 1 µM: test concentration of 1 μM, read-out: Aurora-A percent inhibition
T3 construct: followed by the full length protein encoding the murine Aurora-A; polyhistidine (N); made in house; host or cells: sf9 insect cells
T3 sequence (P97477 1-395): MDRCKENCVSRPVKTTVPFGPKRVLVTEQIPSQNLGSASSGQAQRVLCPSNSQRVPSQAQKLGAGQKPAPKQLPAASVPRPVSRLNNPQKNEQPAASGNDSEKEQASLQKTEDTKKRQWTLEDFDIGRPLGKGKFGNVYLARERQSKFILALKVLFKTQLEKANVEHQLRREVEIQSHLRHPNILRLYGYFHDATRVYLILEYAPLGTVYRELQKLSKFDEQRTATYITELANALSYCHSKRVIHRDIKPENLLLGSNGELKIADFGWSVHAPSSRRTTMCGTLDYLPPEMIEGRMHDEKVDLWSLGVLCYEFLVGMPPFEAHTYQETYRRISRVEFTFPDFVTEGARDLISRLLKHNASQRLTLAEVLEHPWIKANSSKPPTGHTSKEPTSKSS
Description: as §1, §2
Aurora-A is a fusion protein containing a polyhistidine tag at the N terminus followed by the full length protein encoding the murine Aurora-A (Accession number GB BC014711) expressed and purified from sf9 insect cells. The assay used 400 ng of the N-terminal biotinylated peptide biotin-GRTGRRNSI-amide (Aurora-A) per well.
as §3

HER-2 = biological target: T4, HER-2 (Homo sapiens, UniProt P04626); experiment: HER-2 Kinase Assay; format: biochemical; settings: for inhibition at 1 µM: test concentration of 1 μM, read-out: HER-2 percent inhibition
T4 construct: the nucleotides encoding amino acids 679 to 1255 of HER-2; purchased Proqinase (Freiburg, Germany)
T4 sequence (P04626 679-1255): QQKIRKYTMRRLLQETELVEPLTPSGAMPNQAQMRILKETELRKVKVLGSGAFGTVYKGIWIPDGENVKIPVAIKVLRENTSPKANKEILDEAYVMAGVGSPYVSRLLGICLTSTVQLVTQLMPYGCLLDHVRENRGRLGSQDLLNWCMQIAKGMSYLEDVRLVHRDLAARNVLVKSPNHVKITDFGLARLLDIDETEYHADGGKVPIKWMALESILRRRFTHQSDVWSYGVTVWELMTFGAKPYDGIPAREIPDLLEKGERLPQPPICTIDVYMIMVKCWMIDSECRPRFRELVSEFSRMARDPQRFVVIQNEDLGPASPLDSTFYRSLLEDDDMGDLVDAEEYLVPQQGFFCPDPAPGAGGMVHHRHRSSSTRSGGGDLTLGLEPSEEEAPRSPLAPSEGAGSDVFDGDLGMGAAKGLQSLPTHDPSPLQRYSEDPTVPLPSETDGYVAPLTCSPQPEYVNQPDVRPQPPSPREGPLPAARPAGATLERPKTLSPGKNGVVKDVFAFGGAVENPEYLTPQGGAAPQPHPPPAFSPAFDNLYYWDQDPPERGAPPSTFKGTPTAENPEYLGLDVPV
Description: HER-2 kinase was purified at Proqinase (Freiburg, Germany) from a construct that consisted of a fusion of GST (Glutathione-S-Transferase), HIS6-Thrombin and the nucleotides encoding amino acids 679 to 1255 of HER-2.
A mixture of a 10× kinase reaction buffer (600 mM Hepes at pH 7.5, 30 mM Magnesium Chloride, 0.03 mM Sodium Vanadate and 500 μg/mL PEG 20,000), DTT (1.2 mM final from a 10 mM stock), ATP (1 μM from a 10 mM stock), biotinylated polyGluTyr (1.5 ng/μL final from stock of 1 μg/μL prepared by Upstate Biotechnologies, Lake Placid, N.Y.), Manganese Chloride (3 mM final from a 1 M stock), γ-^33P-ATP (10 μCi/μL stock) and water (70 μL/well) was added to each well of a Streptavidin Flashplate (Cat. #SMP103, NEN, Boston, Mass.).
Test compound stock (1 μL) was added to the appropriate wells. Diluted GSTHER2 kinase (6.7 ng/μL diluted into 50 mM Tris-HCl at pH 8.0 and 0.1% bovine serum albumin) (30 μL) was added (total volume of 200 ng/well) to initiate the reactions.
The reaction plates were incubated at 30° C. for 1 hr. The reaction was terminated by aspiring the reaction mixture from the plate wells and washing the wells three times with a 1×PBS stop buffer (300 μL) and 100 mM EDTA. After the final wash, the same stop buffer (200 μL) was again added to the wells. The plates were then sealed and read on the TopCount scintillation counter.
as §3

T1 sequence (P00533 669-1210 limits assumed): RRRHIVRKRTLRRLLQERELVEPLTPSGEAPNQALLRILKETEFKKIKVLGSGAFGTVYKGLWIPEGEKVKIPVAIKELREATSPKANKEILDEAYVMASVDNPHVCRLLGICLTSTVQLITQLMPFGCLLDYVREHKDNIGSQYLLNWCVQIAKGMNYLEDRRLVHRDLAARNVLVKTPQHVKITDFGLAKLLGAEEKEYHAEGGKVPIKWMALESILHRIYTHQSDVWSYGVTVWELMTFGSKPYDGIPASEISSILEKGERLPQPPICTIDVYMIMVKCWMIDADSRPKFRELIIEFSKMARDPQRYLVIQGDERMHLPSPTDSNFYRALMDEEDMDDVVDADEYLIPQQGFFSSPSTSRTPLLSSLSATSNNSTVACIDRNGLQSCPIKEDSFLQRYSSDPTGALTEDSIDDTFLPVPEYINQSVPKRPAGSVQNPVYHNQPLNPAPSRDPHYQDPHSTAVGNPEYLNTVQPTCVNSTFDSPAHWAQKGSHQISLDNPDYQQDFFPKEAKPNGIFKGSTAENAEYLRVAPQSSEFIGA

| inhibition at 2 µM (EGFR) [%] | inhibition at 1 µM (VEGF-R2) [%] | inhibition at 1 µM (Aurora-A) [%] | inhibition at 1 µM (HER-2) [%] | IC50 (EGFR) [nM] | IC50 (HER-2) [nM] | IC50 (VEGF-R2) [nM] | IC50 (Aurora-A) [nM] | SMILES |
| --- | --- | --- | --- | --- | --- | --- | --- | --- |
| 30 | 9 | 15 | 0 |  |  |  |  | N#Cc1cnc2sc(C(=O)Nc3ccncc3)c3c2c1N(c1c(Cl)ccc2c1OCO2)C(=O)N3 [Cpd 40, 5-(5-chloro-benzo[1,3]dioxol-4-yl)-6-cyano-4-oxo-4,5-dihydro-3H-1-thia-3,5,8-triaza-acenaphthylene-2-carboxylic acid pyridin-4-ylamide] |
| 26 | 9 | 15 | 0 |  |  |  |  | Cn1ccc(NC(=O)c2sc3ncc(C#N)c4c3c2NC(=O)N4c2c(Cl)ccc3c2OCO3)n1 [Cpd 39, 5-(5-chloro-benzo[1,3]dioxol-4-yl)-6-cyano-4-oxo-4,5-dihydro-3H-1-thia-3,5,8-triaza-acenaphthylene-2-carboxylic acid (1-methyl-1H-pyrazol-3-yl)-amide] |
| 34 | 7 | 16 | 0 |  |  |  |  | CN(C)c1cc(NC(=O)c2sc3ncc(C#N)c4c3c2NC(=O)N4c2c(Cl)ccc3c2OCO3)ccc1CN1CCOCC1 [Cpd 27, 5-(5-chloro-benzo[1,3]dioxol-4-yl)-6-cyano-4-oxo-4,5-dihydro-3H-1-thia-3,5,8-triaza-acenaphthylene-2-carboxylic acid (3-dimethylamino-4-morpholin-4-ylmethyl-phenyl)-amide] |
| 24 | 0 | 18 | 3 |  |  |  |  | C[C@@H]1CN(Cc2ccc(NC(=O)c3sc4ncc(C#N)c5c4c3NC(=O)N5c3c(Cl)ccc4c3OCO4)cc2)C[C@H](C)O1 [Cpd 25, 5-(5-chloro-benzo[1,3]dioxol-4-yl)-6-cyano-4-oxo-4,5-dihydro-3H-1-thia-3,5,8-triaza-acenaphthylene-2-carboxylic acid [4-(2,6-cis-dimethyl-morpholin-4-ylmethyl)-phenyl]-amide] |
| 24 | 14 | 7 | 12 |  |  |  |  | CC1COCC(C)N1Cc1ccc(NC(=O)c2sc3ncc(C#N)c4c3c2NC(=O)N4c2c(Cl)ccc3c2OCO3)cc1 (stereo not drawn) [Cpd 24, 5-(5-chloro-benzo[1,3]dioxol-4-yl)-6-cyano-4-oxo-4,5-dihydro-3H-1-thia-3,5,8-triaza-acenaphthylene-2-carboxylic acid [4-(3,5-dimethyl-morpholin-4-ylmethyl)-phenyl]-amide] |
| 10 | -22 | 3 | 11 |  |  |  |  | N#Cc1cnc2sc(C(=O)Nc3ccccn3)c3c2c1N(c1c(Cl)ccc2c1OCO2)C(=O)N3 [Cpd 37, 5-(5-chloro-benzo[1,3]dioxol-4-yl)-6-cyano-4-oxo-4,5-dihydro-3H-1-thia-3,5,8-triaza-acenaphthylene-2-carboxylic acid pyridin-2-ylamide] |
| 35 | 1 | 13 | 22 |  |  |  |  | CN1CCCCC1COc1ccc(NC(=O)c2sc3ncc(C#N)c4c3c2NC(=O)N4c2c(Cl)ccc3c2OCO3)cc1 (stereo not drawn) [Cpd 32, 5-(5-chloro-benzo[1,3]dioxol-4-yl)-6-cyano-4-oxo-4,5-dihydro-3H-1-thia-3,5,8-triaza-acenaphthylene-2-carboxylic acid [4-(1-methyl-piperidin-2-ylmethoxy)-phenyl]-amide] |
|  | 11 | 23 |  | 2020 | > 1000 |  |  | N#Cc1cnc2sc(C(=O)Nc3ccc(CN4CCC(F)CC4)cc3)c3c2c1N(c1c(Cl)ccc2c1OCO2)C(=O)N3 [Cpd 26, 5-(5-chloro-benzo[1,3]dioxol-4-yl)-6-cyano-4-oxo-4,5-dihydro-3H-1-thia-3,5,8-triaza-acenaphthylene-2-carboxylic acid [4-(4-fluoro-piperidin-1-ylmethyl)-phenyl]-amide] |
|  |  |  |  | 16.9 | > 10000 | > 100000 | > 100000 | CCOC(=O)c1sc2nc(O)c(C#N)c3c2c1NC(=O)N3c1ccc(Oc2ccccc2)cc1 [Cpd 52, 6-cyano-7-hydroxy-4-oxo-5-(4-phenoxy-phenyl)-4,5-dihydro-3H-1-thia-3,5,8-triaza-acenaphthylene-2-carboxylic acid ethyl ester] |

— patent publication US7427625B2, “Substituted thiatriazaacenaphthylene-6-carbonitrile kinase inhibitors” (Janssen Pharmaceutica, N.V., priority 2006, dated 2008)
